Structures can show the parent of a compound that is named as a salt.
Columns and labels:
[1] = target: T1, recombinant H1 receptor (human) (Homo sapiens, UniProt P35367); assay: H1 competition binding assay ([3H]-Pyrilamine, SPA)
T1 construct: expressed in transfected cells; host or cells: HEK-293
Method: [^3H]-Pyrilamine binding experiments are carried out in SPA (scintillation proximity assay) 96-well format. Membranes used in this assay are prepared from HEK-293 cells stably expressing recombinant H1 receptor (human). The incubation is initiated by the addition of a mixture of WGA PVT SPA beads (1 mg/well, Perkin Elmer (MA, USA) RPNQ0001) and 3 μg membranes to assay buffer (67 mM Tris; pH 7.6) containing 3.5 nM [^3H]-Pyrilamine and varying concentrations of the test compound (10 point concentration response curves). Non-specific binding is determined in the presence of 10 μM Triprolidine. Samples are incubated for 4 hr. at room temperature (22° C.) and then read in a Microbeta® Trilux.
Binding data analysis Curves are evaluated using a 4-parameter logistic nonlinear equation to obtain the concentration of competitor causing 50% inhibition of radioligand binding (IC50). Equilibrium dissociation constants (Ki) are calculated according to the equation Ki=IC50/(1+L/Kd), where L equals the concentration of radioligand used in the experiment and Kd equals the equilibrium dissociation constant of the radioligand for the receptor, determined from standard saturation analysis or homologous competition experiments. Reported values for Ki, where n values are indicated, are shown as geometric mean±the standard error of the mean (SEM), with the number of replicate determinations indicated by n. […]

native GABAA receptors = assay: GABAA antagonism using native receptors in primary neuronal cultures (FLIPR calcium flux); type: cell-based; settings: against 10 μM GABA, rat cortical embryonic neurons
Method: Activity of compounds on native GABAA receptors is evaluated by monitoring calcium fluxes using a 96 well format FLIPR® system (Fluorometric Imaging Plate Reader (FLIPR®, Molecular Devices). Briefly, cortical embryonic neurons are dissociated from E18 rat embryos and plated at optimum density into black-walled, transparent bottom poly-D-lysine coated 96-well FLIPR® plates. After loading the cells with a calcium sensitive dye (Fluo4-AM, Molecular Devices), the cells are bathed in a solution containing low chloride (chloride replaced by gluconate). Under these conditions activation of GABAA receptors causes an efflux of chloride ions (in the direction of the chemical gradient), which results in membrane depolarization and consequently activation of voltage gated calcium channels (VGCCs). Calcium influx through VGCCs is recorded and analysed offline using the FLIPR® system. For a pharmacological validation of the assay, concentration response curves (CRC) are recorded for the standard agonist (GABA) and standard antagonist (Gabazine). […]
The antagonist effects of compounds are quantified using 10-point dose response curves by comparing the peak fluorescent responses to the agonist GABA in the presence and absence of compound. […] Antagonist effects are calculated as a percent of the assay window. […]

5-HT7 = 5-HT7 (Homo sapiens, UniProt P34969); assay: 5-HT7 binding
From the text: (§1) Further, the compounds of the invention may be tested in binding assays and functional activity assays by well known methods for other physiologically important receptors such as, but not limited to, the hERG channel, other serotonin receptors (specifically 5-HT1B and 5-HT1D receptors, lack of agonist activity at 5-HT2B receptors, 5-HT2C, 5-HT5, 5-HT6, and 5-HT7 receptors), dopaminergic receptors (specifically D1, D2, and D3), GABAA receptors, adrenergic receptors and monoamine transporters.

Adrenergic alpha1A = Adrenergic alpha1A (Homo sapiens, UniProt P35348); assay: Adrenergic alpha1A binding
From the text: as §1

Adrenergic alpha2C = Adrenergic alpha2C (Homo sapiens, UniProt P18825); assay: Adrenergic alpha2C binding
From the text: as §1

5-HT2A receptor = target: T2, 5-HT2A receptor (Mus musculus, UniProt P35363); assay: Inhibition of DOI induced headshake activity; type: in vivo; settings: male C57BL/6J mice, 10 mg/kg PO, 3 mg/kg DOI, 60 min. pre-treatment
T2 construct: The in vivo 5-HT2A receptor antagonist activity; from tissue; host or cells: living C57BL/6J mice
Method: (see for example Bartoszyk G D, van Amsterdam C, Böttcher H, Seyfried C A. EMD 281014, a new selective serotonin 5-HT2A receptor antagonist. Eur J Pharmacol. 2003 473: 229-230.) Briefly, male C57BL/6J mice (20-25 g, Charles River) are housed in standard housing conditions ([…], 07.00 to 19.00 light phase, constant temperature (19-23° C.) and humidity (50%+/−10), ad lib food and water). Mice received either vehicle (0.25% Methyl cellulose), DOI (3 mg/kg in saline) or test compound at 10 mg/kg PO plus DOI (3 mg/kg in saline). Test compounds are individually evaluated in groups of four per experiment with n=4 for each compound, together with vehicle and DOI+vehicle (n=8). After a test compound pre-treatment time of 60 min. the mice receive either vehicle (saline) or 3 mg/kg DOI dosed subcutaneously, and are then placed into clear perspex observation chambers. […] The data is analyzed using an ANOVA and post-hoc Dunnet's Test. The compound of example 2 is tested essentially as described and is found to inhibit the DOI induced headshake response produced by 3 mg/kg DOI by 100% at 10 mg/kg.

Plasma clearance = type: in vivo; settings: dog, 1 mg/kg, male Beagle dogs, intravenous, 1 mL/kg of 1.0 mg/mL (free base equivalents)
Method: Male Beagle dogs (body weight range 10-12 kg) are obtained from Marshall Bioresources, USA. Test compound is administered intravenously in solution (1 mL/kg) in 20% Captisol® in 22.5 mM phosphate buffer, pH 2, at a final drug concentration of 1.0 mg/mL (free base equivalents). Blood samples are obtained from the jugular vein over 24 hr. Samples of plasma are obtained by centrifugation and stored frozen (−20° C.) prior to analysis.
Frozen plasma samples are thawed to room temperature for bioanalysis of concentrations of test compound. A related internal standard compound in acetonitrile/methanol (1:1, v/v) is added to all samples of plasma (1:1, v/v). The samples are centrifuged to remove precipitated protein prior to analysis. The supernatants are analysed by injection and rapid gradient elution on a Javelin Betasil C18 column (20×2.1 mm cartridge, Mobile phase A: Water/1 M NH4HCO3, 2000:10 v/v, Mobile Phase B: MeOH/1 M NH4HCO3, 2000:10 v/v). The eluted analytes are detected by LC-MS-MS analysis using a Sciex API 4000 triple quadrupole mass spectrometer. Concentrations of compound are determined from standards prepared and analysed under identical conditions. Clearance is calculated using non-compartmental analysis in Watson 7.4, Thermo Fisher Scientific, Inc.

Sequence of Adrenergic alpha2C (P18825 whole entry): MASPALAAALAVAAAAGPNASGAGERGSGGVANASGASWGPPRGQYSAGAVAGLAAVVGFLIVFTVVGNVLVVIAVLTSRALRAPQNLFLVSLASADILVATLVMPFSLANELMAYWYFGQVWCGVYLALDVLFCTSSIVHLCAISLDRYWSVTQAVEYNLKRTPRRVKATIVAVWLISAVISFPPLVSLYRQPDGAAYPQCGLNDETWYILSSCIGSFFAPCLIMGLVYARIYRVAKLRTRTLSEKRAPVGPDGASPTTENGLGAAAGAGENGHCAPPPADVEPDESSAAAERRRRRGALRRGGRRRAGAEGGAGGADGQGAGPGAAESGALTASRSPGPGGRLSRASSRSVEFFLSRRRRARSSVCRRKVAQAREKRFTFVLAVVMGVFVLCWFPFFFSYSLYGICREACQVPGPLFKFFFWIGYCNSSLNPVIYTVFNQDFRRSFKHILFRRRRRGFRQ
T1 sequence (P35367 whole entry): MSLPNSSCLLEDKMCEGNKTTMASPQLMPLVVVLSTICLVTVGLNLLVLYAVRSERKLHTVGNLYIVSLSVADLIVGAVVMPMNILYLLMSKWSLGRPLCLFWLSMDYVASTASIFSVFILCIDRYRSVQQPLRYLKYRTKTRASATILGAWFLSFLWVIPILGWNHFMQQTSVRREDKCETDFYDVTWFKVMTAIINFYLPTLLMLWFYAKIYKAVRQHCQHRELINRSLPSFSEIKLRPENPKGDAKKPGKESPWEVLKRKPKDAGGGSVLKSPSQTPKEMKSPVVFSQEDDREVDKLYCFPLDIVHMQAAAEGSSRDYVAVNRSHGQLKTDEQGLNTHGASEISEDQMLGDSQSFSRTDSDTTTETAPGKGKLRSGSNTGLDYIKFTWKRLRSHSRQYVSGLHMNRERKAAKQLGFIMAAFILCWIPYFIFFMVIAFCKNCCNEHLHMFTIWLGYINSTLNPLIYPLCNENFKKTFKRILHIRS
T2 sequence (P35363 whole entry): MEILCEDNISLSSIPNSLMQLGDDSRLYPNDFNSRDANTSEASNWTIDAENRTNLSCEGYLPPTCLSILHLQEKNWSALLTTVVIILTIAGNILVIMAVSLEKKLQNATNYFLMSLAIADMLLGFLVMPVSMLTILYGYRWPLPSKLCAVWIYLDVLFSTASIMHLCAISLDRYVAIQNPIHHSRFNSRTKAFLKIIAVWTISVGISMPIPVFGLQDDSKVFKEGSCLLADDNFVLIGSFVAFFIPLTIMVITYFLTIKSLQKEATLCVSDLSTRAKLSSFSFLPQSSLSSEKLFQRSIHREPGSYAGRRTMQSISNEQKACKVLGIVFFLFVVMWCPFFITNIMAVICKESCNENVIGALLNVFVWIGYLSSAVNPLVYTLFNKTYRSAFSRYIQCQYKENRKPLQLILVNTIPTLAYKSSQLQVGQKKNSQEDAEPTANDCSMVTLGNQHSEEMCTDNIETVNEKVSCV
Sequence of 5-HT7 (P34969 whole entry, species assumed): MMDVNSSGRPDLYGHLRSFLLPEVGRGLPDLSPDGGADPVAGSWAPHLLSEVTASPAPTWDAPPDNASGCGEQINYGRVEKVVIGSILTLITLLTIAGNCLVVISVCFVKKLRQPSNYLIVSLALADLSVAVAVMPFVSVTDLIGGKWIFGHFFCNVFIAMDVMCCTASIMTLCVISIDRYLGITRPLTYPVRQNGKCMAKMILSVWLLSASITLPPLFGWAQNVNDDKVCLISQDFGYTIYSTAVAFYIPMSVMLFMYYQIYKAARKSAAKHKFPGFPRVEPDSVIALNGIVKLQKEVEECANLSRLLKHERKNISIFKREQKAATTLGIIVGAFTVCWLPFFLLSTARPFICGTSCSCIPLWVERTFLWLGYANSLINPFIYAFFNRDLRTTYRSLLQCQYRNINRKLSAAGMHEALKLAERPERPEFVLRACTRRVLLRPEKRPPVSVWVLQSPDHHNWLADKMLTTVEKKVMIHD
Sequence of Adrenergic alpha1A (P35348 whole entry): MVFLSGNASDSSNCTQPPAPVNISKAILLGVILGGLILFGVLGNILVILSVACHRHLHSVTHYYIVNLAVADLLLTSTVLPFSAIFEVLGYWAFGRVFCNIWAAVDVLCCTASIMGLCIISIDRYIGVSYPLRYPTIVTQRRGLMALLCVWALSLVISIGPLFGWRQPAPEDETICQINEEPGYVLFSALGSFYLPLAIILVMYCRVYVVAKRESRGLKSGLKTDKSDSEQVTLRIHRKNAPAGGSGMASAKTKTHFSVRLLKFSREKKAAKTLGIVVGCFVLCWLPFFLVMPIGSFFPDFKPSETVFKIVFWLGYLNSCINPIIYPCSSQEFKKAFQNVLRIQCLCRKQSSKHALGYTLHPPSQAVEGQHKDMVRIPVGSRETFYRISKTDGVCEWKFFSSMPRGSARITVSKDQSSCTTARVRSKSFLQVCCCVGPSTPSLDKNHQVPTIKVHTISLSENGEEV

Cc1ccc2c(c1)Oc1sc(C3CC3)cc1C(N1CCN(CC(C)(C)C(=O)O)CC1)=N2 [Example 2, 3-[4-(2-Cyclopropyl-8-methyl-thieno[2,3-b][1,5]benzoxazepin-4-yl)piperazin-1-yl]-2,2-dimethyl-propanoic acid dihydrochloride]
Ki [1]: 43.2 nM | IC50 (native GABAA receptors): > 100000 nM | Ki (5-HT7): > 2060 nM | Ki (Adrenergic alpha1A): 4620 nM | Ki (Adrenergic alpha2C): 1380 nM | inhibition of DOI induced headshake response (5-HT2A receptor): 100% | clearance (Plasma clearance): 6.06 mL/min/kg
